Experiments:
Format in all cases: physicochemical
[1] = Dispersion in aqueous 0.4% Carbopol solution (electrode gel solution for iontophoresis)
Description: Carbopol (Carbopol 940, manufactured by B. F. Goodrich, 0.2 g) was dissolved in 0.3% citrate buffer (pH 6). The pH level of this solution was adjusted at 6 with sodium hydroxide to bring the total amount of the solution to 50 g, and a solution of 0.4% Carbopol (hereafter referred to as an "aqueous 0.4% Carbopol solution") was obtained. The CoQ10-surfactant composite (CoQ10-HydroS, 5 g) obtained in Production Example 14 was dispersed in 50 g of an aqueous 0.4% Carbopol solution with the use of an agitation blade, and a clear homogeneous solution was obtained (hereafter referred to as an "aqueous 0.4% Carbopol solution containing CoQ10-HydroS").
In this case, CoQ10 remained suspended in the solution. […] Thus, CoQ10, which is a low-solubility, nutritional factor, was prepared in the form of a CoQ10-surfactant composite (CoQ10-HydroS), and an aqueous solution for an electrode gel containing a nutritional factor for iontophoresis homogeneously dispersed/dissolved in water was obtained.

[2] = Long-term stability (2-year) at room temperature, browning; conditions: stored at room temperature for 2 years
Excerpt: Long-term stability (2-year) was inspected at room temerature using S/O VC·PMg obtained in Production Example 5. A non-S/O VC·PMg solution was used as a positive control, and a dispersion medium used for S/O preparation was used as a negative control.
The photograph shown in Fig. 6 was stored at room temperature for 2 years.

[3] = Dispersion in olive oil together with vitamin E (VE)
Excerpt: The VC·PMg-surfactant composite (VC·PMg-LipoS, 5g) obtained in Production Example 12 and 0.5 g of vitamin E (VE) were dispersed in 1 kg of olive oil with the use of an agitation blade, and a clear homogeneous solution was obtained. This homogeneous solution was subjected to plastic filling with the use of a rotary soft capsule filling machine in constant amounts of 0.4 g, and soft capsules containing VC·PMg and VE with high content uniformity were obtained. Soft capsules could be produced in a twist-off form as well as in a general oval form. Similarly, constant amounts of 0.1 g were subjected to plastic filling with the use of a seamless soft capsule filling machine to obtain soft capsules containing VC·PMg and VE with high content uniformity. […] In this case, VC·PMg remained suspended in the solution. […] The formed soft capsules were packaged in easy-peel blister packs composed of a plastic film and an aluminum film. Thus, products that allow soft capsules with a low degree of hardness to be easily removed and are clean and easy to carry were obtained. Soft capsules were also packaged in press-through blister packs.

## COC1=C(OC)C(=O)C(C/C=C(\C)CC/C=C(\C)CC/C=C(\C)CC/C=C(\C)CC/C=C(\C)CC/C=C(\C)CC/C=C(\C)CC/C=C(\C)CC/C=C(\C)CCC=C(C)C)=C(C)C1=O [CoQ10, ubiquinone]
[1]; dispersed in 50 g of aqueous 0.4% Carbopol solution (pH 6)
  appearance of the dispersion: a clear solution was not obtained
[1]; in 50 g of aqueous 0.4% Carbopol solution containing 4.5 g of SLS, allowed to stand
  appearance when allowed to stand: a precipitate was observed

## O=C1O[C@H]([C@@H](O)CO)C([O-])=C1OP(=O)([O-])[O-].O=C1O[C@H]([C@@H](O)CO)C([O-])=C1OP(=O)([O-])[O-].[Mg+2].[Mg+2].[Mg+2] [VC·PMg solution, magnesium ascorbyl phosphate]
[2]
  browning: browned with the elapse of time

## O=C1O[C@H]([C@@H](O)CO)C([O-])=C1OP(=O)([O-])[O-].O=C1O[C@H]([C@@H](O)CO)C([O-])=C1OP(=O)([O-])[O-].[Mg+2].[Mg+2].[Mg+2] [VC·PMg, magnesium ascorbyl phosphate]
[3]; dispersed with 0.5 g VE in 1 kg of olive oil
  appearance of the dispersion: a clear solution was not obtained
[3]; with 0.5 g VE in 1 kg of olive oil containing 4.5 g ER-290, allowed to stand
  appearance when allowed to stand: a precipitate was observed

From patent EP2298282B1, “COMBINATION OF DRUGS HAVING DIFFERENT PHYSICAL PROPERTIES INTO SINGLE DOSAGE FORM” (Cocokara fine Healthcare Inc., priority 2008, dated 2009)
